Reference: publication PMC3433420 (PLoS ONE, 2012)
Read-outs that look alike come from different tables or passages of the source. Non-standard residues stand in square brackets, D forms with d. No end group written: not given here. pY = N[C@@H](Cc1ccc(OP(=O)(O)O)cc1)C(=O)O

Columns and labels:
[1] = test system: SH2 and PTB domains; experiment: Sum of relative binding free energies (ΔΔG) from FP KDs, relative to 20 µM threshold; design: species or system human; unit not given here
Description: In order to further define and classify commonalities and differences among the ErbB family, the relative binding free energy (FE) of each SH2 domain was summed across all phosphosites on each receptor relative to the assay detection threshold of 20 µM according to Equation (3): [drawing 10] (3)

[2] = target: SH2 and PTB domains; settings: cited from earlier work
Text: Supplement pone.0044471.s022.xlsx, sheet "Most recent PM interactions" | column: Kd || Supplement pone.0044471.s022.xlsx, sheet "All original PM interactions" | column: Kd

[3] = protein ABL2, ref Kaushansky et al. Chem and Biol 2008
[4] = protein ABL2, ref Jones et al. 2006 / Kaushansky et al. Mol Biosys 2008 / Kaushansky et al. Chem and Biol 2008

Question: For ERBB3 (SEQG[pY]EEMRAFQD), which GO_SumDDG ([1]; GO group Adaptors) is on record?
Answer: 1.375

Question: And the GO_SumDDG ([1]; GO group Chromatin Remodeling)?
Answer: 0

Question: And the GO_SumDDG ([1]; GO group Cytoskeletal Regulation)?
Answer: 3.549

Question: And the GO_SumDDG ([1]; GO group Kinases)?
Answer: 3.776

Question: What about the GO_SumDDG ([1]; GO group Phosphatases) of the same substance?
Answer: 2.349

Question: And the GO_SumDDG ([1]; GO group Phosphatidyl Inositol Kinases)?
Answer: 12.5484

Question: What about the GO_SumDDG ([1]; GO group Phosphatidyl Inositol Phosphatases) of the same substance?
Answer: 1.508

Question: What about the GO_SumDDG ([1]; GO group Phospholipases) of the same substance?
Answer: 8.299

Question: What about the GO_SumDDG ([1]; GO group RAS GEFs) of the same substance?
Answer: 3.469

Question: And the GO_SumDDG ([1]; GO group RAS GTPases)?
Answer: 10.8637

Question: And the GO_SumDDG ([1]; GO group RHO GEFs)?
Answer: 4.394

Question: And the GO_SumDDG ([1]; GO group Scaffolds)?
Answer: 3.618

Question: And the GO_SumDDG ([1]; GO group Signal Regulation)?
Answer: 2.5932

Question: Which Kd [2, 3] does the source give for “PPPApYTPMSGNQd [ErbB4 pY1056, N-terminally rhodamine-labeled 13-mer phosphopeptide]” here?
Answer: 660 nM

Question: And the Kd ([2]; protein PIK3R1-N, ref Kaushansky et al. Chem and Biol 2008)?
Answer: 540 nM

Question: And the Kd ([2]; protein PIK3R1-NC, ref Kaushansky et al. Chem and Biol 2008)?
Answer: 1440 nM

Question: What about the Kd ([2]; protein PIK3R2-N, ref Kaushansky et al. Chem and Biol 2008) of the same substance?
Answer: 200 nM

Question: And the Kd ([2]; protein PIK3R2-NC, ref Kaushansky et al. Chem and Biol 2008)?
Answer: 460 nM

Question: And the Kd ([2]; protein PIK3R3-N, ref Kaushansky et al. Chem and Biol 2008)?
Answer: 890 nM

Question: And the Kd ([2]; protein PIK3R3-NC, ref Kaushansky et al. Chem and Biol 2008)?
Answer: 580 nM

Question: For “PSSGpYMPMNQGNd [ErbB3 pY1054, N-terminally rhodamine-labeled 13-mer phosphopeptide]”, which Kd ([2]; Protein ABL2, original PM interactions, ref Jones et al. 2006 / Kaushansky et al. Chem and Biol 2008) is on record?
Answer: 170 nM

Question: And the Kd ([2]; Protein ITK, original PM interactions, ref Jones et al. 2006 / Kaushansky et al. Chem and Biol 2008)?
Answer: 1670 nM

Question: What about the Kd ([2]; Protein PIK3R1-C, original PM interactions, ref Jones et al. 2006 / Kaushansky et al. Chem and Biol 2008) of the same substance?
Answer: 1000 nM

Question: And the Kd ([2]; Protein PIK3R1-N, original PM interactions, ref Jones et al. 2006 / Kaushansky et al. Chem and Biol 2008)?
Answer: 570 nM

Question: And the Kd ([2]; Protein PIK3R1-NC, original PM interactions, ref Jones et al. 2006 / Kaushansky et al. Chem and Biol 2008)?
Answer: 110 nM

Question: What about the Kd ([2]; Protein PIK3R2-N, original PM interactions, ref Jones et al. 2006 / Kaushansky et al. Chem and Biol 2008) of the same substance?
Answer: 1000 nM

Question: What about the Kd ([2]; Protein PIK3R2-NC, original PM interactions, ref Jones et al. 2006 / Kaushansky et al. Chem and Biol 2008) of the same substance?
Answer: 90 nM

Question: And the Kd ([2]; Protein PIK3R3-C, original PM interactions, ref Jones et al. 2006 / Kaushansky et al. Chem and Biol 2008)?
Answer: 110 nM

Question: And the Kd ([2]; Protein PIK3R3-N, original PM interactions, ref Jones et al. 2006 / Kaushansky et al. Chem and Biol 2008)?
Answer: 1000 nM

Question: What about the Kd ([2]; Protein PIK3R3-NC, original PM interactions, ref Jones et al. 2006 / Kaushansky et al. Chem and Biol 2008) of the same substance?
Answer: 50 nM

Question: What about the Kd ([2]; Protein SHB, original PM interactions, ref Jones et al. 2006 / Kaushansky et al. Chem and Biol 2008) of the same substance?
Answer: 1370 nM

Question: And the Kd ([2]; Protein SHC1-PTB, original PM interactions, ref Jones et al. 2006 / Kaushansky et al. Chem and Biol 2008)?
Answer: 2000 nM

Question: And the Kd ([2]; Protein SHF, original PM interactions, ref Jones et al. 2006 / Kaushansky et al. Chem and Biol 2008)?
Answer: 1230 nM

Question: What about the Kd ([2]; Protein SYK-C, original PM interactions, ref Jones et al. 2006 / Kaushansky et al. Chem and Biol 2008) of the same substance?
Answer: 1180 nM

Question: Which results are given for “QHPDpYLQEYSTKd [ErbB4 pY1258, N-terminally rhodamine-labeled 13-mer phosphopeptide]”?
Answer: Kd ([2]; protein ABL2, all original PM interactions, ref Jones et al. 2006 / Kaushansky et al. Chem and Biol 2008): 880 nM; Kd ([2]; protein PIK3R3-NC, all original PM interactions, ref Jones et al. 2006 / Kaushansky et al. Chem and Biol 2008): 2000 nM; Kd ([2]; protein PLCG1-C, all original PM interactions, ref Jones et al. 2006 / Kaushansky et al. Chem and Biol 2008): 2000 nM; Kd ([2]; protein PLCG1-NC, all original PM interactions, ref Jones et al. 2006 / Kaushansky et al. Chem and Biol 2008): 2000 nM; Kd ([2]; protein RASA1-N, all original PM interactions, ref Jones et al. 2006 / Kaushansky et al. Chem and Biol 2008): 2000 nM; Kd ([2]; protein SHC1-PTB, all original PM interactions, ref Jones et al. 2006 / Kaushansky et al. Chem and Biol 2008): 2000 nM; Kd ([2]; protein SLA, all original PM interactions, ref Jones et al. 2006 / Kaushansky et al. Chem and Biol 2008): 2000 nM; Kd ([2]; protein SYK-NC, all original PM interactions, ref Jones et al. 2006 / Kaushansky et al. Chem and Biol 2008): 2000 nM; Kd ([2]; protein VAV2, all original PM interactions, ref Jones et al. 2006 / Kaushansky et al. Chem and Biol 2008): 2000 nM; Kd ([2]; protein VAV2, ref Jones et al. 2006 / Kaushansky et al. Chem and Biol 2008): 770 nM

Question: With “QNPVpYHNQPLNPd [ErbB1 pY1110, N-terminally rhodamine-labeled 13-mer phosphopeptide]” as the substance, how does the Kd ([2]; protein ABL1, ref Jones et al. 2006 / Kaushansky et al. Mol Biosys 2008 / Kaushansky et al. Chem and Biol 2008) read?
Answer: 520 nM

Question: What about the Kd [2, 4] of the same substance?
Answer: 60 nM

Question: What about the Kd ([2]; protein GRB2, ref Jones et al. 2006 / Kaushansky et al. Mol Biosys 2008 / Kaushansky et al. Chem and Biol 2008) of the same substance?
Answer: 2000 nM

Question: And the Kd ([2]; protein NCK2, ref Jones et al. 2006 / Kaushansky et al. Mol Biosys 2008 / Kaushansky et al. Chem and Biol 2008)?
Answer: 2000 nM

Question: And the Kd ([2]; protein SHC1-PTB, ref Jones et al. 2006 / Kaushansky et al. Mol Biosys 2008 / Kaushansky et al. Chem and Biol 2008)?
Answer: 320 nM

Question: For QSLLSPSSGpYMPMNQGN [ErbB3 1054], which Kd ([2]; Protein ABL2, most recent PM interactions, ref Jones et al. 2006 / Kaushansky et al. Chem and Biol 2008) is on record?
Answer: 330 nM

Question: What about the Kd ([2]; Protein ITK, most recent PM interactions, ref Jones et al. 2006 / Kaushansky et al. Chem and Biol 2008) of the same substance?
Answer: 1670 nM

Question: And the Kd ([2]; Protein PIK3R1-C, most recent PM interactions, ref Jones et al. 2006 / Kaushansky et al. Chem and Biol 2008)?
Answer: 1000 nM

Question: What about the Kd ([2]; Protein PIK3R1-N, most recent PM interactions, ref Jones et al. 2006 / Kaushansky et al. Chem and Biol 2008) of the same substance?
Answer: 570 nM

Question: What about the Kd ([2]; Protein PIK3R1-NC, most recent PM interactions, ref Jones et al. 2006 / Kaushansky et al. Chem and Biol 2008) of the same substance?
Answer: 920 nM

Question: What about the Kd ([2]; Protein PIK3R2-N, most recent PM interactions, ref Jones et al. 2006 / Kaushansky et al. Chem and Biol 2008) of the same substance?
Answer: 890 nM

Question: What about the Kd ([2]; Protein PIK3R2-NC, most recent PM interactions, ref Jones et al. 2006 / Kaushansky et al. Chem and Biol 2008) of the same substance?
Answer: 90 nM

Question: What about the Kd ([2]; Protein PIK3R3-C, most recent PM interactions, ref Jones et al. 2006 / Kaushansky et al. Chem and Biol 2008) of the same substance?
Answer: 110 nM

Question: What about the Kd ([2]; Protein PIK3R3-N, most recent PM interactions, ref Jones et al. 2006 / Kaushansky et al. Chem and Biol 2008) of the same substance?
Answer: 1320 nM

Question: And the Kd ([2]; Protein PIK3R3-NC, most recent PM interactions, ref Jones et al. 2006 / Kaushansky et al. Chem and Biol 2008)?
Answer: 490 nM

Question: And the Kd ([2]; Protein SHB, most recent PM interactions, ref Jones et al. 2006 / Kaushansky et al. Chem and Biol 2008)?
Answer: 1370 nM

Question: And the Kd ([2]; Protein SHF, most recent PM interactions, ref Jones et al. 2006 / Kaushansky et al. Chem and Biol 2008)?
Answer: 1230 nM

Question: And the Kd ([2]; Protein SYK-C, most recent PM interactions, ref Jones et al. 2006 / Kaushansky et al. Chem and Biol 2008)?
Answer: 1180 nM

Question: What does the source list for “RDPHpYQDPHSTAd [ErbB1 pY1125, N-terminally rhodamine-labeled 13-mer phosphopeptide]”?
Answer: Kd [2, 4]: 130 nM; Kd ([2]; protein BMX, ref Jones et al. 2006 / Kaushansky et al. Mol Biosys 2008 / Kaushansky et al. Chem and Biol 2008): 1070 nM; Kd ([2]; protein CRK, ref Jones et al. 2006 / Kaushansky et al. Mol Biosys 2008 / Kaushansky et al. Chem and Biol 2008): 1230 nM; Kd ([2]; protein CRKL, ref Jones et al. 2006 / Kaushansky et al. Mol Biosys 2008 / Kaushansky et al. Chem and Biol 2008): 2000 nM; Kd ([2]; protein RASA1-N, ref Jones et al. 2006 / Kaushansky et al. Mol Biosys 2008 / Kaushansky et al. Chem and Biol 2008): 1320 nM; Kd ([2]; protein SHB, ref Jones et al. 2006 / Kaushansky et al. Mol Biosys 2008 / Kaushansky et al. Chem and Biol 2008): 990 nM; Kd ([2]; protein SYK-NC, ref Jones et al. 2006 / Kaushansky et al. Mol Biosys 2008 / Kaushansky et al. Chem and Biol 2008): 980 nM; Kd ([2]; protein TNS1, ref Jones et al. 2006 / Kaushansky et al. Mol Biosys 2008 / Kaushansky et al. Chem and Biol 2008): 1280 nM; Kd ([2]; protein YES1, ref Jones et al. 2006 / Kaushansky et al. Mol Biosys 2008 / Kaushansky et al. Chem and Biol 2008): 380 nM

Question: Which Kd ([2]; protein SRC, ref Kaushansky et al. Chem and Biol 2008) does the source give for “STQRpYSADPTVFd [ErbB4 pY1128, N-terminally rhodamine-labeled 13-mer phosphopeptide]” here?
Answer: 500 nM

Question: For THDPSPLQRpYSEDPTVPd [ErbB2 1112], which Kd ([2]; Protein BLK, most recent PM interactions, ref Kaushansky et al. Chem and Biol 2008) is on record?
Answer: 760 nM

Question: What about the Kd ([2]; Protein PLCG2-NC, most recent PM interactions, ref Kaushansky et al. Chem and Biol 2008) of the same substance?
Answer: 1060 nM

Question: With “VSVPpYRAPTSTI [ErbB4 pY1081, N-terminally rhodamine-labeled 13-mer phosphopeptide]” as the substance, how does the Kd [2, 3] read?
Answer: 1230 nM

Question: What about the Kd ([2]; protein CRKL, ref Kaushansky et al. Chem and Biol 2008) of the same substance?
Answer: 1240 nM
